Four molecules from patent US5384317A, “Bridged biphenyl carbapenem compounds, compositions containing such compounds and methods of use” (Merck & Co., Inc., priority 1993, dated 1995) can be followed below.

Values after ≈ are worked out from the molar mass of the structure shown.

Usually MIC stands for the smallest concentration in the dilution series that meets the test's criterion for growth inhibition.

For assay [1], the system named is MRSA strain MB #5180. The assay can be described thus: minimum inhibitory concentration. The following applies: Staphylococcus aureus, imipenem (standard). The class given is cell-based, methicillin resistant Staphylococcus aureus. The procedure:
(§1) Minimum inhibitory concentrations for different compounds may be calculated using the procedures set forth in Lorian, V. (ed.) Antibiotics in Laboratory Medicine (3rd ed.) pages 30-35 if desired. However, by comparing disc sensitivities to a known compound, e.g., imipenem, this calculation is not required to recognize MRSA/MRCNS activity.
All compounds below were tested against MRSA strain MB #5180. […]

The subject of assay [2] is MRSA strain MB #5180. The experiment in a line: antibiotic disc-diffusion assay of MRSA activity, relative to imipenem. In kind it is cell-based, methicillin resistant Staphylococcus aureus. Particulars: multiples of the relative potency of imipenem. The procedure: In vitro antibacterial activity determined in accordance with the protocol set forth below is predictive of in vivo activity, when the compounds are administered to a mammal infected with a susceptible bacterial organism.
as §1
Assay Used to Test the Activities of Carbapenems Against Methicillin-Resistant Staphylococci: The assay is an antibiotic disc-diffusion assay modeled after the method described by Bauer and Kirby, et al.1, with the following modifications and clarifications:
Agar: This assay employs an agar depth of 2 mm instead of 4 mm.
Zone Readings: The inner, completely clear zone is measured.
Culture Storage: Frozen vials of strains are stored at -80° C. Working slants are prepared from frozen vials and are used for 1 month to 6 weeks. For methicillin-resistant strains the slant medium is Muleller Hinton Agar; for control strains the slant medium is Brain Heart Infusion Agar. After inoculation from frozen vials, methicillin-resistant slant cultures are incubated at 28° C. until good growth is achieved (approximately 20 hours); slants of control strains are incubated at 37° C. for 16-18 hours.
Preparation of Methicillin-Resistant Inocula for Assay: For methicillin-resistant strains, inoculate 0.5 ml of BHIB heavily (to achieve approximately 1×10^8-109 cfu/ml) from the slant culture by using a sterile cotton tipped applicator. […]
Methicillin-resistant Staphylococci: With a cotton tipped applicator, swab enough growth off the grown plates into 1 ml BHIB to achieve a visual concentration of approximately 1×10^9 cfu/ml. […] Add measured quantities of PBS to dilutions to achieve % T @ 1% above or below the % T measurement for the control cultures. […]

Regarding `C[C@@H](O)[C@H]1C(=O)N2C(C(=O)O)=C(SCCN=CN)C[C@H]12` [imipenem], the MIC against MRSA strain MB #5180 [1] turned out to be 46 µg/mL (≈ 154 µM).

For `C[C@@H](O)[C@H]1C(=O)N2C(C(=O)O)=C3c4ccccc4CC[C@@H]3[C@H]12`, in the assay with MRSA strain MB #5180 [2], the “MRSA Activity” value is recorded as 1.3.

On to `C[C@@H](O)[C@H]1C(=O)N2C(C(=O)O)=C3c4cc(-c5ccccc5)ccc4CC[C@@H]3[C@H]12`, for which, in the assay on MRSA strain MB #5180 [2], the “MRSA Activity” value is given as 18.0.

On to `C[C@@H](O)[C@H]1C(=O)N2C(C(=O)O)=C3c4cccc(-c5ccccc5)c4CC[C@@H]3[C@H]12`, for which the “MRSA Activity” value in the assay with MRSA strain MB #5180 [2] amounted to 1.9.
